Laboratory results as given in patent publication US20200188466A1, “COMPOSITIONS OF SCHISANDRA EXTRACTS AND METHODS THEREOF” (Reyoung Corporation, priority 2017, published 2020).
Like-named read-outs stand apart in the source and are kept apart here.

Test: Plasma kinetic study of celastrol with and without Schisandrin A
Format: in vivo, Sprague Dawley rats
Details: rats; for Cmax / Tmax / AUC(0-t) / AUC(0-inf) / MRT last / MRT inf / half-life: male, Sprague Dawley, rat, plasma, po, 1.8 mg/kg; for AUC(0-t): read-out: AUC0→t of celastrol; for AUC(0-inf): read-out: AUC0→∞ of celastrol; for MRT last: read-out: MRT0→t of celastrol; for MRT inf: read-out: MRT0→∞ of celastrol; for half-life: read-out: T1/2 of celastrol (converted)
Protocol: 42 Male Sprague Dawley rats (weight, 210-250 g) were maintained on a 12-hour light/dark cycle with free access to water and lab chow for 10-14 h prior to the experiment. Rats were randomly divided into 7 groups (n=6 each) and groups 2-7 received 0 mg/kg, 5.5 mg/kg, and 11.0 mg/kg, 22.0 mg/kg, 44.0 mg/kg and 88.0 mg/kg of Schisandrin A in 1% CMC-Na (300-800 cps) via oral administration, respectively. After 5 minutes, all the groups received 1.8 mg/kg of celastrol in a solution of 2% DMSO-98% sterile water via oral administration.
After celastrol treatment, blood samples were collected from individual rat at 0.25 h, 0.5 h, 1 h, 2 h, 4 h, 8 h, 12 h, 24 h, 36 h, and 48 h, respectively. Plasma was separated by centrifugation at 8000 rpm for 6 minutes at 4° C. and kept at −80° C. until analysis. Plasma homogenate was injected into LC-MS/MS for analysis.

[1] = Group1, celastrol 1.8 mg/kg oral, no Schisandrin A dose stated
[2] = Group2, Schisandrin A 0 mg/kg oral 5 min before celastrol 1.8 mg/kg oral
[3] = Group3, Schisandrin A 5.5 mg/kg oral 5 min before celastrol 1.8 mg/kg oral
[4] = Group4, Schisandrin A 11.0 mg/kg oral 5 min before celastrol 1.8 mg/kg oral
[5] = Group5, Schisandrin A 22.0 mg/kg oral 5 min before celastrol 1.8 mg/kg oral
[6] = Group6, Schisandrin A 44.0 mg/kg oral 5 min before celastrol 1.8 mg/kg oral
[7] = Group7, Schisandrin A 88.0 mg/kg oral 5 min before celastrol 1.8 mg/kg oral

CC1=C(O)C(=O)C=C2C1=CC=C1[C@@]2(C)CC[C@@]2(C)[C@@H]3C[C@](C)(C(=O)O)CC[C@]3(C)CC[C@]12C [celastrol]
T1/2 of celastrol [1]: 10.07 ± 2.48 h
Cmax [1]: 7.03 ± 2.65 ng/mL
Tmax [1]: 5.33 ± 2.07 h
AUC(0-t) [1]: 103 ± 28.2 ng·h/mL
AUC(0-inf) [1]: 125 ± 22.4 ng·h/mL
MRT last [1]: 12.1 ± 1.74 h
MRT inf [1]: 12.1 ± 3.49 h
Cmax [2]: 5.94 ± 1.38 ng/mL
Tmax [2]: 4 h
AUC(0-t) [2]: 93.2 ± 2.74 ng·h/mL
AUC(0-inf) [2]: 107 ± 19.6 ng·h/mL
MRT last [2]: 12 ± 1.82 h
MRT inf [2]: 12 ± 2.33 h
half-life [2]: 12.1 ± 1.77 h
Cmax [3]: 7.13 ± 1.86 ng/mL
Tmax [3]: 5.6 ± 3.58 h
AUC(0-t) [3]: 117 ± 27.8 ng·h/mL
AUC(0-inf) [3]: 124 ± 27.9 ng·h/mL
MRT last [3]: 13.1 ± 2.27 h
MRT inf [3]: 18.8 ± 8.57 h
half-life [3]: 11.5 ± 5.18 h
Cmax [4]: 7.08 ± 0.57 ng/mL
Tmax [4]: 4 h
AUC(0-t) [4]: 123 ± 20.1 ng·h/mL
AUC(0-inf) [4]: 133 ± 20.1 ng·h/mL
MRT last [4]: 12.9 ± 1.05 h
MRT inf [4]: 15.7 ± 1.91 h
half-life [4]: 9.1 ± 1.71 h
Cmax [5]: 7.45 ± 2.72 ng/mL
Tmax [5]: 9.33 ± 4.13 h
AUC(0-t) [5]: 146 ± 48.4 ng·h/mL
AUC(0-inf) [5]: 121 ± 31.7 ng·h/mL
MRT last [5]: 14.2 ± 1.26 h
MRT inf [5]: 16.9 ± 1.65 h
half-life [5]: 10.3 ± 1.76 h
Cmax [6]: 7.43 ± 3.47 ng/mL
Tmax [6]: 10.7 ± 3.27 h
AUC(0-t) [6]: 156 ± 68.5 ng·h/mL
AUC(0-inf) [6]: 198 ± 94.4 ng·h/mL
MRT last [6]: 14.9 ± 2.32 h
MRT inf [6]: 33.1 ± 20.5 h
half-life [6]: 23.8 ± 18 h
Cmax [7]: 9.15 ± 6.48 ng/mL
Tmax [7]: 6.67 ± 4.13 h
AUC(0-t) [7]: 171 ± 99.1 ng·h/mL
AUC(0-inf) [7]: 186 ± 108 ng·h/mL
MRT last [7]: 14.2 ± 1.18 h
MRT inf [7]: 16.7 ± 1.68 h
half-life [7]: 9.29 ± 1.97 h
